Reference: US4847273A, “Dihydropyridine derivatives” (Hoffmann-La Roche Inc., priority 1985, dated 1989)

Assays:
[1] = tested on: ^3 H-nifedipine (or ^3 H-nitrendipine) binding, rabbit or guinea pig heart membranes; assay: 3H-Nifedipine binding determination on homogenates or partially-cleaned membranes of rabbit or guinea pig heart (test A); settings: maximum inhibition of specific binding; nifedipine established as 100%
Procedure: A. ^3 H-Nifedipine binding determination:
The determination is carried out on homogenates or on partially-cleaned membranes of rabbit or guinea pig heart. The reaction mixture (0.3 ml) consists of 0.2-0.8 mg of membrane protein, 1 nM of ^3 H-nifedipine (or 0.25 nM of ^3 H-nitrendipine) and various concentrations of the test substance. The incubation lasts 30 minutes at 25° C. or 37° C. and is stopped by dilution with the incubation buffer; a filtration is subsequently carried out. The filter-bound radioactivity is measured with a scintillation counter. Specific binding, that is, receptor-bound, is defined as the difference between total and unspecific-bound radioactivity. The unspecific binding is determined in the presence of an excess of non-radioactive nifedipine (1 μM).
The activity (potency) of a compound in this test is defined by the IC50 and %maximum inhibition values (%max. inhibition). The IC50 is the substance concentration (in mol/l) which produces a half-maximum inhibition of the specific ^3 H-nifedipine (or ^3 H-nitrendipine) binding. The maximum inhibition of the specific binding is given by the %maximum inhibition value; this value is established as 100% for the reference compound nifedipine. Both parameters are extrapolated from a concentration-binding curve.

[2] = Haemodynamic parameters in the narcotized dog (test B); format: in vivo; settings: 0.03 mg/kg p.o.
Description: B. Haemodynamic parameters in the narcotized dog:
The 4 most important measurement parameters (with respective measurement units) of the haemodynamic experiment are: (1) CBF: Coronary Blood Flow (in ml/min)--the velocity of blood flow through the coronary arteries; (2) HR: heart rate (in beats/min)--the heart frequency; (3) BP: blood pressure (in mm Hg)--the blood pressure; and (4) dp/dt: rate of increase in left ventricular pressure (in mm Hg/sec)--the rate of increase of the left ventricular pressure, as a measurement of the contractility force of the heart. The values are given as the %maximum variation from the initial value (Δ%) and the duration of this variation (t) per dosage administered.
There is thus obtained not only an overall picture of the activity of the substance, but also an estimation as to the potential selectivity for a specific part of the circulatory system in the entire organism. After the administration of an anaesthetic, the dog is intubated and respired artificially. Blood pH, pCO2, pO2 and haemoglobin are measured hourly with a blood-gas analyzer. The blood pressure (systolic and diastolic) is measured with a probe in the aorta abdominalis. The heart frequency is recorded by means of a tachometer, which is disengaged from the pressure pulse. For the other measurements the heart must firstly be opened in order that a probe can be inserted in the left ventricle (heart chamber) for the pressure measurements (dp/dt). The coronary blood flow is measured with a flowing probe in the left coronary artery (descendens).

Row | Compound | % max. inhib. [1] | Bp (blood pressure), % maximum variation from the initial value (Δ%) [2] | Bp, duration of variation (t) [2] | CBF (Coronary Blood Flow), % maximum variation from the initial value (Δ%) [2] | CBF, duration of variation (t) [2] | HR (heart rate), % maximum variation from the initial value (Δ%) [2] | HR, duration of variation (t) [2] | dp/dt (rate of increase in left ventricular pressure), % maximum variation from the initial value (Δ%) [2] | dp/dt, duration of variation (t) [2]
1 | COCCN(C)S(=O)(=O)C1=C(C)NC(C)=C(C(=O)OC(C)C)C1c1cccc([N+](=O)[O-])c1 (stereo not drawn) [C, 1,4-dihydro-2,6-dimethyl-5-[(2-methoxyethyl)methylsulfamoyl]-4-(3-nitrophenyl)nicotinic acid isopropyl ester] | 100% | -32% | > 60 ' | 108% | 20 ' | -11% | > 60 ' | -16% | > 60 '
2 | CCCCN(C)S(=O)(=O)C1=C(C)NC(C)=C(C(=O)OC(C)C)C1c1cccc([N+](=O)[O-])c1 (stereo not drawn) [B, 5-(butylmethylsulfamoyl)-1,4-dihydro-2,6-dimethyl-4-(3-nitrophenyl)nicotinic acid isopropyl ester] | 100% | -30% | 24 ' | 78% | 40 ' | -11% | > 30 ' | -2% | 20 '
3 | CCCOCCOC(=O)C1=C(C)NC(C)=C(S(=O)(=O)N(C)C)C1c1cccc([N+](=O)[O-])c1 (stereo not drawn) [A, 5-(dimethylsulfamoyl)-1,4-dihydro-2,6-dimethyl-4-(3-nitrophenyl)nicotinic acid 2-propoxyethyl ester] | 100% | -55% | 60 ' | 50% | 60 ' | -19% | 40 ' | -42% | 60 '
